Laboratory results reported in patent US10112940B2, “Histone demethylase inhibitors” (Celgene Quanticel Research, Inc., priority 2014, dated 2018).

Legend:
JMJD2C = JMJD2C (Homo sapiens (Human), UniProt Q9H3R0); test: JMJD2C in vitro enzyme inhibition assay (TR-FRET); assay type: biochemical; conditions: 0.3 nM JMJD2C, 300 nM H3K9me3-biotin peptide, 2 μM alpha-ketoglutaric acid, 30 minutes
Procedure: This assay determines the ability of a test compound to inhibit JMJD2C demethylase activity. Baculovirus expressed JMJD2C (GenBank Accession #BC143571, AA 2-372) was purchased from BPS Bioscience (Cat#50105).
The ability of test compounds to inhibit the activity of JMJD2C was determined in 384-well plate format under the following reaction conditions: 0.3 nM JMJD2C, 300 nM H3K9me3-biotin labeled peptide (Anaspec cat #64360), 2 μM alpha-ketoglutaric acid in assay buffer of 50 mM HEPES, pH7.3, 0.005% Brij35, 0.5 mM TCEP, 0.2 mg/ml BSA, 50 μM sodium L-ascorbate, and 2 μM ammonium iron(II) sulfate. Reaction product was determined quantitatively by TR-FRET after the addition of detection reagent Phycolink Streptavidin-allophycocyanin (Prozyme) and Europium-anti-di-methylated histone H3 lysine 9 (H3K9me2) antibody (PerkinElmer) in the presence of 5 mM EDTA in LANCE detection buffer (PerkinElmer) at a final concentration of 50 nM and 1 nM, respectively.
The assay reaction was initiated by the following: 2 μl of the mixture of 900 nM H3K9me3-biotin labeled peptide and 6 μM alpha-ketoglutaric acid with 2 μl of 11-point serial diluted inhibitor in 3% DMSO were added to each well of the plate, followed by the addition of 2 μl of 0.9 nM JMJD2C to initiate the reaction. The reaction mixture was incubated at room temperature for 30 minutes, and terminated by the addition of 6 μl of 5 mM EDTA in LANCE detection buffer containing 100 nM Phycolink Streptavidin-allophycocyanin and 2 nM Europium-anti-H3K9me2 antibody. Plates were read by EnVisionMultilabel Reader in TR-FRET mode (excitation at 320 nm, emission at 615 nm and 665 nm) after 1 hour incubation at room temperature. A ratio was calculated (665/615) for each well and fitted to determine inhibition constant (IC50).
The ability of the compounds disclosed herein to inhibit demethylase activity was quantified and the respective IC50 value was determined. Table 3 provides the IC50 values of various compounds disclosed herein.

[1] = system: KYSE-150 esophageal carcinoma cell line; test: In vitro cell-based assay: BrdU incorporation cell proliferation ELISA; design: species or system human; conditions: Homo sapiens, KYSE-150 cells, 168 hours compound incubation, read-out: Cellular IC50
Procedure: Cell lines tested include the JMJD2C gene amplified cell line KYSE-150. This is a quantitative ELISA assay measuring DNA incorporation of BrdU during S-phase as a direct readout of cellular proliferation.
Assay Principle: This is a colorimetric immunoassay for the quantification of cell proliferation. Cells treated for 168 hours with test compounds are assayed for their ability to go through S-phase as a measure of their proliferative potential.
Assay Method: The human KYSE-150 (SMAD4 mut, TP53 mut) esophageal carcinoma cell line was seeded at 2,000 cells/well on a 96-well tissue culture treated plate. After an overnight incubation, cells were treated with compound in an 11-point dilution series with final concentrations ranging from 100 μM to 2 nM. Cells were then incubated in the presence of compound for 168 hours. After compound incubation the cells were assayed using a BrdU Cell Proliferation ELISA (Roche). The cells were first incubated with BrdU labeling reagent for 2 hours. After 2 hours, the BrdU incorporated cells were fixed and denatured, probed with an anti-BrdU-Peroxidase antibody for 1.5 hours and washed. Finally, a tetramethylbenzidine peroxidase substrate was added to each well for 15 minutes followed by a H2SO4 stop solution. The plate was read at 450 nm, and the raw optical density data was transferred into XLFit (IDBS) for IC50 calculation using the formula: fit=(D+((Vmax*(x^n))/((x^n)+(Km^n))))
Table 4 provides the cellular IC50 values of various compounds disclosed herein.

Chain of JMJD2C (Q9H3R0 2-372): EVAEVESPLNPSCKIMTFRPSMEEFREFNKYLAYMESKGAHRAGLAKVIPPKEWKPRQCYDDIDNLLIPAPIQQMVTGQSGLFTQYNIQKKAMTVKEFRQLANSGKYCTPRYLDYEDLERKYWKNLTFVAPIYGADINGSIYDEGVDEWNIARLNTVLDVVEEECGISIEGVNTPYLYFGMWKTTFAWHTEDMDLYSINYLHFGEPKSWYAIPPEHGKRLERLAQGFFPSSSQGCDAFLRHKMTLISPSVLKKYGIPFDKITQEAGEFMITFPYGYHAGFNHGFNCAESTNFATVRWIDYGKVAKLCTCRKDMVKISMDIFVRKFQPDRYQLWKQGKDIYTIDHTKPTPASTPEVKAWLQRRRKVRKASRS

Compound	IC50 (JMJD2C) [nM]	IC50 [1] [nM]
Oc1nc(Oc2ccc3cn(Cc4ccccc4)nc3c2)nc2cnccc12 [Example 12, 2-(2-Benzyl-2H-indazol-6-yloxy)-pyrido[3,4-d]pyrimidin-4-ol]	100 to 1000	1000 to 10000
Cn1ccc2cc(Oc3nc(O)c4ccncc4n3)ccc21 [Example 2, 2-(1-Methyl-1H-indol-5-yloxy)-pyrido[3,4-d]pyrimidin-4-ol]	100 to 1000	≤ 100
CN(c1ccc(Oc2nc(O)c3ccncc3n2)cc1)c1cccc(N2CCOCC2)c1 [Example 19, 2-{4-[Methyl-(3-morpholin-4-yl-phenyl)-amino]-phenoxy}-pyrido[3,4-d]pyrimidin-4-ol]	100 to 1000	100 to 1000
Cc1ccc(N(C)c2ccc(Oc3nc(O)c4ccncc4n3)cc2)cc1N1CCOCC1 [Example 55, 2-[4-(N,4-dimethyl-3-morpholin-4-ylanilino)phenoxy]pyrido[3,4-d]pyrimidin-4-ol]	100 to 1000	1000 to 10000
CCc1ccc(N(C)c2ccc(Oc3nc(O)c4ccncc4n3)cc2)cc1N1CCOCC1 [Example 59, 2-[4-(4-ethyl-N-methyl-3-morpholin-4-ylanilino)phenoxy]pyrido[3,4-d]pyrimidin-4-ol]	≤ 100	> 10000
CN(c1ccc(Oc2nc(O)c3ccncc3n2)cc1)c1cccc(N2CCCC(N)C2)c1 (stereo not drawn) [Example 58, 2-[4-[3-(3-aminopiperidin-1-yl)-N-methylanilino]phenoxy]pyrido[3,4-d]pyrimidin-4-ol]	≤ 100	> 10000
CN1CCCN(c2cccc(N(C)c3ccc(Oc4nc(O)c5ccncc5n4)cc3)c2)CC1 [Example 88, 2-[4-[N-methyl-3-(4-methyl-1,4-diazepan-1-yl)anilino]phenoxy]pyrido[3,4-d]pyrimidin-4-ol]	≤ 100	> 10000
CN1CCN(Cc2cccc(N(C)c3ccc(Oc4nc(O)c5ccncc5n4)cc3)c2)CC1 [Example 41, 2-(4-{methyl-[3-(4-methyl-piperazin-1-ylmethyl)-phenyl]-amino}-phenoxy)-pyrido[3,4-d]pyrimidin-4-ol]	≤ 100	1000 to 10000
CN(CCc1ccccc1)c1ccc(Oc2nc(O)c3ccncc3n2)cc1 [Example 13, 2-{4-[Methyl(2-phenylethyl)amino]phenoxy}pyridino[3,4-d]pyrimidin-4-ol]	100 to 1000	1000 to 10000
Oc1nc(Oc2ccc3c(ccn3C3CCOCC3)c2)nc2cnccc12 [Example 91, 2-[1-(oxan-4-yl)indol-5-yl]oxypyrido[3,4-d]pyrimidin-4-ol]	100 to 1000	> 10000
CN(c1ccc(Oc2nc(O)c3ccncc3n2)cc1)c1ccnc(N2CCOCC2)c1 [Example 61, 2-[4-[methyl-(2-morpholin-4-ylpyridin-4-yl)amino]phenoxy]pyrido[3,4-d]pyrimidin-4-ol]	≤ 100	> 10000
CN(Cc1ccccc1)c1ccc(Oc2nc(O)c3ccncc3n2)cc1 [Example 6, 2-[4-(Benzyl-methyl-amino)-phenoxy]-pyrido[3,4-d]pyrimidin-4-ol]	100 to 1000	≤ 100
Oc1nc(Oc2ccc3c(cnn3Cc3ccccc3)c2)nc2cnccc12 [Example 15, 2-(1-Benzyl-1H-indazol-5-yloxy)-pyridino[3,4-d]pyrimidin-4-ol]	100 to 1000	1000 to 10000

Continued, values first:

IC50 (JMJD2C) [nM]	IC50 [1] [nM]	Compound
100 to 1000	≤ 100	CN(c1ccc(OCC(F)(F)F)cc1)c1ccc(Oc2nc(O)c3ccncc3n2)cc1 [Example 73, 2-[4-[N-methyl-4-(2,2,2-trifluoroethoxy)anilino]phenoxy]pyrido[3,4-d]pyrimidin-4-ol]
100 to 1000	100 to 1000	COC(C)c1ccc(N(C)c2ccc(Oc3nc(O)c4ccncc4n3)cc2)cc1 (stereo not drawn) [Example 36, 2-(4-{[4-(1-methoxy-ethyl)-phenyl]-methyl-amino}-phenoxy)-pyrido[3,4-d]pyrimidin-4-ol]
1000 to 10000	100 to 1000	CN(c1ccc(Oc2nc(O)c3ccncc3n2)cc1)c1cccc(C(F)(F)F)c1 [Example 86, 2-[4-[N-methyl-3-(trifluoromethyl)anilino]phenoxy]pyrido[3,4-d]pyrimidin-4-ol]
1000 to 10000	≤ 100	CN(c1ccc(CC2CC2)cc1)c1ccc(Oc2nc(O)c3ccncc3n2)cc1 [Example 76, 2-[4-[4-(cyclopropylmethyl)-N-methylanilino]phenoxy]pyrido[3,4-d]pyrimidin-4-ol]
1000 to 10000	≤ 100	CN(c1ccc(OCC(C)(C)C)cc1)c1ccc(Oc2nc(O)c3ccncc3n2)cc1 [Example 75, 2-[4-[4-(2,2-dimethylpropoxy)-N-methylanilino]phenoxy]pyrido[3,4-d]pyrimidin-4-ol]
100 to 1000	≤ 100	CN(c1ccc(Oc2nc(O)c3ccncc3n2)cc1)c1ccc(C(C)(C)C)cc1 [Example 92, 2-[4-(4-tert-butyl-N-methylanilino)phenoxy]pyrido[3,4-d]pyrimidin-4-ol]
1000 to 10000	≤ 100	CCCc1ccc(N(C)c2ccc(Oc3nc(O)c4ccncc4n3)cc2)cc1 [Example 69, 2-[4-(N-methyl-4-propylanilino)phenoxy]pyrido[3,4-d]pyrimidin-4-ol]
≤ 100	1000 to 10000	CC(CCN)c1ccc(N(C)c2ccc(Oc3nc(O)c4ccncc4n3)cc2)cc1 (stereo not drawn) [Example 71, 2-[4-[4-(4-aminobutan-2-yl)-N-methylanilino]phenoxy]pyrido[3,4-d]pyrimidin-4-ol]
100 to 1000	1000 to 10000	C[C@H](c1ccccc1)N(C)c1ccc(Oc2nc(O)c3ccncc3n2)cc1 [Example 52, 2-[4-[methyl-[(1R)-1-phenylethyl]amino]phenoxy]pyrido[3,4-d]pyrimidin-4-ol]
100 to 1000	1000 to 10000	C[C@@H](c1ccccc1)N(C)c1ccc(Oc2nc(O)c3ccncc3n2)cc1 [Example 51, 2-[4-[methyl-[(1S)-1-phenylethyl]amino]phenoxy]pyrido[3,4-d]pyrimidin-4-ol]
≤ 100	> 10000	CN(C)c1ccc(N(C)c2ccc(Oc3nc(O)c4ccncc4n3)cc2)cc1 [Example 44, 2-[4-[4-(dimethylamino)-N-methylanilino]phenoxy]pyrido[3,4-d]pyrimidin-4-ol]
100 to 1000	> 10000	CN(c1ccc(Oc2nc(O)c3ccncc3n2)cc1)c1cccc(C#N)c1 [Example 40, 3-{[4-(4-hydroxy-pyrido[3,4-d]pyrimidin-2-yloxy)-phenyl]-methyl-amino}-benzonitrile]
1000 to 10000	100 to 1000	Cc1ccc(N(C)c2ccc(Oc3nc(O)c4ccncc4n3)cc2)cc1C [Example 83, 2-[4-(N,3,4-trimethylanilino)phenoxy]pyrido[3,4-d]pyrimidin-4-ol]
100 to 1000	100 to 1000	Cc1ccc(N(C)c2ccc(Oc3nc(O)c4ccncc4n3)cc2)cc1F [Example 53, 2-[4-(3-fluoro-N,4-dimethylanilino)phenoxy]pyrido[3,4-d]pyrimidin-4-ol]
1000 to 10000	≤ 100	CC(C)COc1ccc(N(C)c2ccc(Oc3nc(O)c4ccncc4n3)cc2)cc1 [Example 74, 2-[4-[N-methyl-4-(2-methylpropoxy)anilino]phenoxy]pyrido[3,4-d]pyrimidin-4-ol]
1000 to 10000	100 to 1000	CN(c1ccc(Oc2nc(O)c3ccncc3n2)cc1)c1ccc(OC(F)(F)F)cc1 [Example 110, 2-[4-[N-methyl-4-(trifluoromethoxy)anilino]phenoxy]pyrido[3,4-d]pyrimidin-4-ol]
1000 to 10000	≤ 100	CC[C@@H](C)c1ccc(N(C)c2ccc(Oc3nc(O)c4ccncc4n3)cc2)cc1 [Example 78, 2-[4-[4-[(2R)-butan-2-yl]-N-methylanilino]phenoxy]pyrido[3,4-d]pyrimidin-4-ol]
